Test results: patent US7323490B2, “Pyrrole compounds and uses thereof” (Ambit Biosciences Corporation, priority 2003, dated 2008)
Values joined by “and” are separate entries in the source; they are usually repeats but may differ in a detail not shown here. Equal values may be shown once. Read-outs that look alike come from different tables or passages of the source.

Key:
[1] = system: focal cerebral ischemia; conditions: for Infarct Volume: 1 h post, 24 h post MCAo, mean ± SEM; for Infarct Volume / infarct volume compared with controls (significance) / reduction in infarct volume from control: 48 h
Experimental: Control animals were injected with the vehicle for the test compounds. Survival was maintained for 48 hrs. The cortical infarction sizes were used as endpoints for efficacy evaluation.
(§1) Animal Preparation and Middle Cerebral Artery Occlusion. Male, adult, Sprague-Dawley rats (Charles River), weighing 300-400 grams, were used for the study. All animals were acclimated at least for five days before entering the study. Animals were housed in a standard animal facility and fed with commercial rodent chow ad libitum. All animals were anesthetized via intramuscular injection (4 mL/kg) of “cocktail” containing ketamine (25 mg/mL), xylazine (1.3 mg/mL) and acepromazine (0.33 mg/mL). Both carotid arteries were separated with great caution to minimize the vagal nerve stimulation. The right proximal MCA trunk was exposed through a subtemporal craniectomy without transecting the facial nerve. […] Immediately following MCA occlusion, both of the common carotid arteries were occluded for 1 hour using surgical aneurysm micro-clips (ROBOZ INC). Animals were put into temperature regulated recovery chamber for 1 hour before the clips were removed from the common carotid arteries. Body temperature was maintained at 37±0.5° C. during the surgery using a heating blanket connected to a temperature controller.
Compound Administration and Storage. In a blinded random investigation, all animals were injected with the compound(s) or vehicle via S.C. as bolus injection at 2 hours pre, 1 hour post and 24 hours post-MCAo.
(§2) Infarct Measurement. Forty-eight hours following MCAo, animals were euthanized with inhalation of CO2. Brains were removed and chilled in ice saline for 10 min. The brains were put in a metal rodent brain slicer. Each rat brain was cut coronally into 7 sections, with each section being 2 mm thick. The brain sections were immersed in 2% TTC solution for 30 min at 37° C. The areas of cerebral infarcts were determined on seven slices, using a computer-interfaced imaging system, Image-Pro® Plus, Version 4.4 for Windows (Media Cybernetics, MD). Infarct areas were then summed among slices and multiplied by slice thickness to give the total infarct volume.
(§3) Statistics. All data are expressed as mean±SEM. Infarct volume was analyzed using Student t Test. A p value of ≦0.05 was considered a statistically significant difference. All statistical analyses were performed with the software package JMP version 4.0 (SAS Institute Inc., Cary, N.C.).

[2] = system: focal cerebral ischemia; assay: Rat MCAO model, time schedules of administration (Example 11); format: in vivo; conditions: 25 hrs post, 48 h
Experimental: The compounds were tested on a standardized rodent focal cerebral ischemia model produced by permanent occlusion of the right middle cerebral artery (MCA) plus one hour of tandem carotid artery occlusion according to Chen et al. A total of 96 animals underwent MCAo using subcutaneous administration of all test articles, according to the experimental design illustrated in Table 5 below. Three compounds at one predetermined dose were compared to vehicle and assigned to three different time schedules of administration relative to the time of MCAo. […] The time schedules for administration of all treated groups were divided as follows:
A second group of eighteen animals were used to test compound A (782236) using the treatment schedule, shown (a, b & c) above via intravenous (I.V.) administration. Groups of n=5 animals per treatment time period with compound A and 3 animals per control group via tail vein.
as §1
Experimental Groups and Compound Administration. A total of 96 animals underwent MCAo using subcutaneous administration of all test articles, according to the experimental design illustrated in Table 5 below. Three compounds at one predetermined dose were compared to vehicle and assigned to three different time schedules of administration relative to the time of MCAo. […] The time schedules for administration of all treated groups were divided as follows:
A second group of eighteen animals were used to test compound A (782236) using the treatment schedule, shown (a, b & c) above via I.V. administration. Groups of n=5 animals per treatment time period with compound A and 3 animals per control group via tail vein.
as §2
as §3, with “In Section A, infarct” for “Infarct”

[3] = system: focal cerebral infarcts (MCAo); assay: Infarct volume measurement (H&E), Tamura MCAo model; format: in vivo, rat; conditions: day 7
Text: Behavioral assessment as well as infarct volume of compound-treated animals in comparison to control (vehicle) volume animals was used for evaluating compound efficacy over a 7 day period.
Surgical Preparation. Middle Cerebral Artery Occlusion (MCAo), Tamura Model. Focal cerebral infarcts were made by permanent occlusion of the proximal right middle cerebral artery using a modification of the method of Tamura et al. Male Sprague-Dawley rats (300-350 g) were anesthetized with 2% isoflourane in 50% Air/50% O2, and maintained with 1-1.5% isoflourane. The temporalis muscle was bisected and reflected through an incision made midway between the eye and the eardrum canal. The proximal MCA was exposed through a subtemporal craniectomy without removing the zygomatic arch and without transecting the facial nerve. […] Body temperature was maintained at 38° C.±1 throughout the entire procedure. Animals were euthanatized at various time periods after MCA occlusion and the brains are removed for histological analysis.
Morphometric Analysis—Brain Perfusion. Seven days after the induction of focal ischemia, rats were deeply anesthetized with a ketamine, and xylazine cocktail. The animals were then perfused transcardially with normal saline (with heparin 2 unit/ml) followed by 4% paraformaldehyde for infarct volume measurement (H&E staining). Brains were removed and stored in 10% formalin to be sectioned and stained with Hematoxylin and Eosin.
Infarct Volume Measurement. Using the Image Pro-Plus imaging system, a total of 7 images per brain of the posterior side of each slice were analyzed through digital analysis. The total direct infarct volume was calculated for the left hemisphere using the equation below. Digitizing and computation was done under blinded conditions.
The total infarct volumes are calculated for each animal and subsequent group means were determined as volume of area (mm^3). To account for tissue shrinkage and possible edema the indirect method of infarct volume was calculated using the formula: Total Contralateral Hemisphere Volume−Total Infarcted Hemisphere Volume (mm^3)
Experimental Groups and Compound Administration. A total of 80 animals underwent MCAo using subcutaneous administration of all test articles, according to the experimental design illustrated in Table 16. […] The time schedules for administration of all treated groups (10 animals/group) was divided as follows:
All animals were treated with the compound(s)/vehicle(s) as a blinded random investigation. The dose and route of administration is given below in Table 16. Forty animals used in the first group of the study (group a.) Cerebral blood flow measurement was performed according to the protocol previously discussed on days 0, 1 and 5 with respect to MCAo.

[4] = SC, schedule a: 2 hrs pre, 3 hrs post, doses per Table 5 (782236 1/0.5/0.5, others 10/5/5 mg/kg)
[5] = SC, schedule b: 1 hr post, 3 hrs post, doses per Table 5
[6] = SC, schedule c: 3 hrs post, 6 hrs post, doses per Table 5
[7] = administered six hours after MCAo
[8] = administered six hours after MCAo, listed as C
[9] = administered three hours after MCAo
[10] = administered three hours after MCAo, listed as C
[11] = administered six hours after MCAo, listed as B
[12] = administered three hours after MCAo, listed as B
[13] = administered six hours after MCAo, listed as A
[14] = administered three hours after MCAo, listed as A

SMILES	Infarct Volume ([1]; 1 mg/kg SC at 2 h pre) [mm^3]	infarct volume compared with controls (significance) ([1]; 1 mg/kg SC)	infarction volume [2, 4] [mm^3]	infarction volume [2, 5] [mm^3]	infarction volume [2, 6] [mm^3]	Corrected Infarct Volume, Average [3, 7] [mm^3]	Percent Infarct Volume, Average [3, 7] [%]	Corrected Infarct Volume, Average [3, 9] [mm^3]	Percent Infarct Volume, Average [3, 9] [%]	also measured
CC(C)c1c(C(=O)Nc2ccccc2)c(-c2ccccc2)c(-c2ccc(F)cc2)n1CC[C@@H](O)C[C@@H](O)CC(=O)O [atorvastatin, reference compound]	158.06 ± 32.83	not significantly different from controls	80.35±30.41	121.52±22.58	127.16±25.77	271.2	24.56	207.96	21	Infarct Volume ([1]; 10 mg/kg SC at 2 h pre): 124.71 ± 17.31 mm^3; infarct volume compared with controls (significance) ([1]; 10 mg/kg SC): not significantly different from controls; Corrected Infarct Volume, individual animals [3, 8]: 138.8 mm^3 and 267.1 mm^3 and 232.3 mm^3 and 333 mm^3 and 214.3 mm^3 and 291.6 mm^3 and 338.3 mm^3 and 354.3 mm^3; Percent Infarct Volume, individual animals [3, 8]: 12.7% and 21.6% and 24.2% and 31% and 25.4% and 29.4% and 25.7% and 26.6%; Corrected Infarct Volume, individual animals [3, 10]: 208 mm^3 and 303.3 mm^3 and 262.3 mm^3 and 184.8 mm^3 and 243.8 mm^3 and 124 mm^3 and 162.8 mm^3 and 164.5 mm^3 and 218.2 mm^3; Percent Infarct Volume, individual animals [3, 10]: 18.35% and 28.2% and 31% and 16.2101% and 25.43% and 12.82% and 17.39% and 16.81% and 22.81%
CC(C)c1[nH]c(-c2ccc(F)cc2)c(-c2ccccc2)c1C(=O)Nc1ccccc1 [Compound 781430]	152.83 ± 13.78	not significantly different from controls	78.89±28.46	96.51±31.62	121.39±22.53	283.4	26.92	213.77	22.29	Infarct Volume ([1]; 10 mg/kg SC at 2 h pre, listed as B): 65.99±25.01 mm^3; reduction in infarct volume from control ([1]; 10 mg/kg SC): 57%; Corrected Infarct Volume, individual animals [3, 11]: 375.7 mm^3 and 204.5 mm^3 and 353.2 mm^3 and 262.2 mm^3 and 196.6 mm^3 and 352.4 mm^3 and 289.9 mm^3 and 195.4 mm^3 and 327.7 mm^3 and 276.5 mm^3; Percent Infarct Volume, individual animals [3, 11]: 31.4% and 21.7% and 26.2% and 33.9% and 15.6% and 29.1% and 28.8% and 25.4% and 35.3% and 21.8%; Corrected Infarct Volume, individual animals [3, 12]: 200.1 mm^3 and 231.7 mm^3 and 217.7 mm^3 and 173 mm^3 and 180.5 mm^3 and 224.1 mm^3 and 208.1 mm^3 and 233.4 mm^3 and 255.3 mm^3; Percent Infarct Volume, individual animals [3, 12]: 19.74% and 21.5679% and 24.3% and 20.62% and 19.71% and 23.99% and 22.56% and 24.24% and 23.9%
CC(C)c1c(C(=O)Nc2ccccc2)c(-c2ccccc2)c(-c2ccc(F)cc2)n1CC(O)C(O)C(O)C(O)CO (stereo not drawn) [Compound 782236]			138.6±35.13	171.04±33.04	155.53±29.66	239.27	26.69	212.59	23.53	Infarct Volume ([1]; 1 mg/kg SC at 2 h pre, listed as A): 71.32±36.98 mm^3; reduction in infarct volume from control ([1]; 1 mg/kg SC): 53%; animals died within the 24-hour period after the second injection ([1]; 10 mg/kg SC): Three; mortality rate ([1]; 10 mg/kg SC): 60%; infarction volume ([2]; IV, schedule a: 2 hrs pre, 3 hrs post, 1/0.5/0.5 mg/kg): 186.8±9.2 mm^3; infarction volume ([2]; IV, schedule b: 1 hr post, 3 hrs post): 122.8±17.9 mm^3; infarction volume ([2]; IV, schedule c: 3 hrs post, 6 hrs post): 73.8±18.1 mm^3; Corrected Infarct Volume, individual animals [3, 13]: 227.2 mm^3 and 166.6 mm^3 and 234.6 mm^3 and 269.8 mm^3 and 249 mm^3 and 215.8 mm^3 and 229 mm^3 and 213.3 mm^3 and 271.4 mm^3 and 316 mm^3; Percent Infarct Volume, individual animals [3, 13]: 25.6% and 31.5% and 24.6% and 28.8% and 28.1% and 28.9% and 24.8% and 23.5% and 25.3% and 25.8%; Corrected Infarct Volume, individual animals [3, 14]: 210.9 mm^3 and 272.5 mm^3 and 275.6 mm^3 and 163.8 mm^3 and 249 mm^3 and 229.2 mm^3 and 127.9 mm^3 and 222.3 mm^3 and 235 mm^3 and 139.8 mm^3; Percent Infarct Volume, individual animals [3, 14]: 25.1% and 29% and 23.7% and 15.8% and 28.1% and 25.9% and 15.9% and 27.5% and 25.4% and 18.9%
